“Also recorded” adds a separate entry of the source.
Tests used:
[1] = system: self-complementary duplex 12-mer d(AATTACGTAATT) (SEQ ID NO: 1); experiment: DNA alkylation detected by LC/MS; assay type: biochemical; settings: for covalent DNA-small molecule complex formed (LC/MS chromatogram): oligonucleotide 100 μM, 1 equiv compound, pH 7 buffer; for products from alkylated oligonucleotide after piperidine treatment: 1.0 M piperidine, 30 minutes at 95 °C
Excerpt: Next, we performed a set of experiments to determine whether the DC-45-A2 and dideoxy-DC-45-A2 complexes observed by DNA-gel electrophoresis were covalent or not. A liquid chromatography-mass spectrometry (LC/MS) method was developed for the detection of DNA oligonucleotides and covalent DNA-small molecule complexes. The mass spectrometer was used in a negative ion mode under conditions that had been optimized for the detection of single-stranded nucleic acids.
To solutions of the oligonucleotide d(AATTACGTAATT) (SEQ ID NO: 1) (100 μM) in pH 7 buffer were added, in three separate reaction vials, 1 equiv of DC-45-A2, 1 equiv of iso-DC-45-A2, or 1 equiv of dideoxy-DC-45-A2. After incubation for 24 h at 23° C., it was evident from the LC/MS chromatogram that a covalent DNA-small molecule complex had formed in both the DC-45-A2 and dideoxy-DC-45-A2 reaction mixtures but not in the iso-DC-45-A2 reaction mixture (FIG. 13). The alkylated single-stranded oligonucleotide eluted as a signal that was separate from the non-alkylated oligonucleotide. […] The absence of an iso-DC-45-A2 complex is consistent with the absence of reactivity of this compound towards the oligonucleotide under the alkylation conditions in the DNA-gel experiment described in the section above. The IC50 values of the three compounds in antiproliferative assays are also depicted in FIG. 13.
To test whether or not alkylation by DC-45-A2 and dideoxy-DC-45-A2 occurs at the N7 guanine site via the same epoxide opening mechanism observed for trioxacarcin A, we treated samples of alkylated oligonucleotide with piperidine to provide a product solution with a final concentration of 1.0 M in piperidine. […] This fragmentation is consistent with induced single strand cleavage of the type observed in the Maxam-Gilbert G-specific reaction that is associated with N7 guanine alkylation. In the present case, the guanine residue has been excised and the phosphates at the 3′ and 5′ positions have been eliminated to give the two fragment strands.
General Method: To a solution of dsDNA [ds(AATTACGTAATT) (SEQ ID NO: 1), 1.07 mM] in alkylation buffer (86.7 μL, see above for preparation of solutions) in a 1.7-mL centrifuge tube was added a solution of DC-45-A2 in DMSO (2.00 μL, 5 mM). The sample was votexed, then rotated end-over-end at 23° C. for 2 h. The sample was stored at 4° C. for 16 h. The sample was diluted to a concentration of 5 μM of dsDNA. A 10 μL sample of the diluted solution was injected into a short oligonucleotide column (gradient elution with […] TEAB buffer and methanol, flow rate 150 μL/min) and the column output was monitored by mass spectrometry in a negative ionization mode. The doubly deionized DC-45-A2-alkylated single-stranded DNA oligonucleotide (mass/charge=2079.4) was detected at 9.32 min.
To five separate solutions (designated as vials 1-5) of duplex DNA oligonucleotide d(AATTACGTAATT) (SEQ ID NO: 1) (0.72 mM [concentration of the DNA duplex] in alkylation buffer [see paragraph above for preparation], 13.9 μL, 10 nmol, 1 equiv) in alkylation buffer (84.1 μL) were added, respectively, DC-45-A2 (5.0 mM solution in dimethylsulfoxide, 2.0 μL, 10 nmol, 1.0 equiv, vials 1 and 2), iso-DC-45-A2 (5.0 mM solution in dimethylsulfoxide, 2.0 μL, 10 nmol, 1.0 equiv, vial 3), and dideoxy-DC-45-A2 (5.0 mM solution in dimethylsulfoxide, 2.0 μL, 10 nmol, 1.0 equiv, vials 4 and 5). The samples were vortexed, then rotated end-over-end at 23° C. After 23 h 30 min, vials 2 and 5 were diluted with piperidine (10 μL) and placed in a heating block at 95° C. After 30 min, vials 2 and 5 were cooled by centrifugation for 30 seconds (VWR Labnet C-1200 Minicentrifuge). After a total reaction time of 24 h, a 5-μL aliquot was removed from each of the five reaction mixtures. Each aliquot was diluted with alkylation buffer (95 μL, see above for preparation). […]

[2] = system: HeLa S3 cells; experiment: Cell proliferation assay (MTS/PMS), HeLa S3 cells; assay type: cell-based; settings: HeLa cell line; 72 h at 37 °C
Protocol: (§1) Cell Culture. H460 cells and HeLa S3 cells were purchased from American Type Culture Collection (ATCC). H460 cells were maintained in RPMI-1640 medium supplemented with 10% fetal bovine serum (FBS). HeLa S3 cells were maintained in Dulbecco's Modified Eagle's Medium supplemented with 10% fetal bovine serum (FBS).
(§2) Cell Proliferation Assay. A solution of H460 or HeLa S3 cells (3000 cells/well) in growth medium was seeded onto a 96-well plate. The 96-well plate was incubated for 24 h at 37° C. Stock solutions of each compound were serially diluted and administrated to cells to achieve final concentrations of 38 nM to 83 μM (DC-45-A2 and iso-DC-45-A2) or 3.4 nM to 7.5 μM (dideoxy-DC-45-A2). After incubating at 37° C. for 72 h, 20 μL of MTS/PMS solution (Promega CellTiter 96® Aqueous Non-Radioactive Cell Proliferation Assay) was added to each well. After incubating at 37° C. for 3.5 h, the absorbance at 490 nm was recorded using a microplate reader (SpectraMax PLUS384) as a measure of viable cells. Percent growth inhibition was calculated for each well based upon the following formula: percent growth inhibition=100×(C−T)/C, where T is the absorbance of the well containing the test compound minus the average absorbance of wells containing media alone, and C is the average absorbance of wells containing vehicle control-treated cells minus the average absorbance of wells containing media alone. […]

[3] = system: H460 cells; experiment: Cell proliferation assay (MTS/PMS), H460 cells; assay type: cell-based; settings: H460 cell line (printed H4609 in b565); 72 h at 37 °C
Protocol: as §1, §2

[4] = Storage and solution stability

Compound | covalent DNA-small molecule complex formed (LC/MS chromatogram) ([1]; 24 h at 23 °C) | IC50, growth inhibition [2] | IC50, growth inhibition [3] | stability in solution ([4]; in solution at 23 °C) | stability on storage ([4]; stored neat at −25 °C with exclusion of light) | products from alkylated oligonucleotide after piperidine treatment [1] | relative abundance of the covalent complex ([1]; 24 h at 23 °C, compared with DC-45-A2 complex)
COc1c2c(c(O)c3c4c(c(C)cc13)[C@H]1O[C@]3(C(OC)OC)O[C@H]1[C@](O)(O4)[C@@]31CO1)C(=O)[C@@H](O)C[C@@H]2O [iso-DC-45-A2, 11,12,13,15-tetraepi-DC-45-A2] | not | inactive | inactive | – | – | – | –
DC-45-A2 | had formed | micromolar; also recorded: submicromolar | micromolar; also recorded: submicromolar | slow decomposition over hours | stable | pTAATT and AATTACp | –
Dideoxy-DC-45-A2 | had formed | – | – | – | – | pTAATT and AATTACp | greater relative abundance
